This assay concerns the target T1, human FGFR4 (Homo sapiens, UniProt P22455).
T1 construct: human FGFR4 cytoplasmic domain (460-802); GST (N); purchased Carna Biosciences 08-136
As to the kind of experiment: FGFR4 enzymatic assay (HTRF KinEASE-TK). Type of assay: biochemical. Conditions: wild-type human FGFR4 cytoplasmic domain (460-802), GST-tag; 60 min preincubation at 25° C.; ATP 200 μM; read-out: Potency (IC50), FGFR4 enzymatic assay. The protocol:
The ability of compounds to inhibit human FGFR4 tyrosine kinase activities was determined using a commercially available HTRF® KinEASE™-TK kit (CISBIO, Cat #62TK0PEC) according to the manufacturer's protocol. Wild-type human FGFR4 cytoplasmic domain (460-802) with N-terminal GST-tag was purchased from Carna Biosciences (Carna, Cat #08-136) and used in the kinase enzymatic assay. This assay, run in a 384-well plate format, is a generic method for measuring tyrosine kinase activities using one substrate and a universal detection system. It involves two steps: (1) Enzymatic step: the biotin labeled TK Substrate is incubated with the kinase and then ATP is added to start the enzymatic reaction; during this step, FGFR4 will phosphorylate the TK Substrate-biotin. (2) Detection step: The TK-Antibody labeled with Eu^3+-Cryptate can recognize the phosphorylated TK Substrate-biotin. When the streptavidin-XL665 conjugate binds the biotin, a FRET signal will be detected. Briefly, human FGFR4 (0.25 μg/ml) in the enzymatic buffer solutions (250 mM HEPES, pH7.0, 0.1% NaN3, 0.05% BSA, 0.5 mM Orthovanadate) were mixed with various concentrations of the test compound (dissolved in 100% DMSO). These solutions were incubated for 60 min at 25° C., and subsequently a mixture of substrate peptide and ATP was added with the final peptide and ATP concentrations at 0.3 μM and 200 μM respectively. The final reaction mixture of enzyme-substrate-ATP-compound was incubated for 40 min at 37° C. Meanwhile the detection mixture containing the TK-antibody and Streptavidin-XL665 diluted in the detection buffer (50 mM HEPES, pH7.0, with additives) was prepared, and added to the reaction mixture at final concentrations of 25 nM and 18.5 nM respectively. After incubation for 60 min at 25° C., the FRET signal of the final solution was measured at 665 nm and 612 nm emissions on a TECAN Spark 10M instrument (TECAN). The percent (%) inhibition at each concentration of a compound was calculated relative to the FRET signal in the Max and Min control wells contained within each assay plate. The Max control wells contained enzyme and substrate as 0% inhibition, and the Min control wells only contained substrate without enzyme as 100% inhibition. The concentrations and percent inhibition values for a test compound are plotted and the concentration of the compound required to achieve 50% inhibition (IC50) was determined with a four-parameter logistic dose response equation. Dose-response curves were generated using Prism (GraphPad Software, La Jolla, CA, US) to calculate IC50 values for each compound tested.

A value given as a limit tells only on which side of the number the result lay.

T1 sequence (P22455 460-802): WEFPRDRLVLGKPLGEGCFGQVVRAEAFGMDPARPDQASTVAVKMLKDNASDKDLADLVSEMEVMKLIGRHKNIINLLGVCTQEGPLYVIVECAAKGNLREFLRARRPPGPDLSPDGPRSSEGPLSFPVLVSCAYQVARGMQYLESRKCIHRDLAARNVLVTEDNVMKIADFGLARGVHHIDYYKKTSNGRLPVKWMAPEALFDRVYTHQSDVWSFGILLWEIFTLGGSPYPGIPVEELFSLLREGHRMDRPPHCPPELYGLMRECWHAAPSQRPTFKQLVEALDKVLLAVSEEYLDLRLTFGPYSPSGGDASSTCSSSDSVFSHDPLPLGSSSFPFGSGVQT

One may read the IC50 as the concentration that inhibits the measured activity by half. For the compound `C=C(F)C(=O)Nc1cnn(C)c1-c1n[nH]c2c1CCC(c1c(F)c(OC)cc(OC)c1F)C2` (single isomer, unassigned) [Compound S21-P1, N-(5-(6-(2,6-difluoro-3,5-dimethoxyphenyl)-4,5,6,7-tetrahydro-1H-indazol-3-yl)-1-methyl-1H-pyrazol-4-yl)-2-fluoroacrylamide], the IC50 was over 100 nM. The value for `COc1cc(OC)c(F)c(C2CCc3c(-c4c(NC(C)=O)cnn4C)n[nH]c3C2)c1F` (single isomer, unassigned) [Compound S19-P2, N-(5-(6-(2,6-difluoro-3,5-dimethoxyphenyl)-4,5,6,7-tetrahydro-1H-indazol-3-yl)-1-methyl-1H-pyrazol-4-yl)acetamide] was over 100 nM; that for `C=CC(=O)N[C@H]1COC[C@H]1c1n[nH]c2c1CC[C@@H](c1c(Cl)c(OC)cc(OC)c1Cl)C2` [Compound S10-P1, N-((3R,4R)-4-((R)-6-(2,6-dichloro-3,5-dimethoxyphenyl)-4,5,6,7-tetrahydro-1H-indazol-3-yl)tetrahydrofuran-3-yl)acrylamide] was over 100 nM; that for `COc1cc(OC)c(F)c(C2CCc3c(-c4c(NC(C)=O)cnn4C)n[nH]c3C2)c1F` (single isomer, unassigned) [Compound S19-P1, N-(5-(6-(2,6-difluoro-3,5-dimethoxyphenyl)-4,5,6,7-tetrahydro-1H-indazol-3-yl)-1-methyl-1H-pyrazol-4-yl)acetamide] was over 100 nM. Consider `C=C(F)C(=O)Nc1cnn(C)c1-c1n[nH]c2c1CCC(c1c(F)c(OC)cc(OC)c1F)C2` (single isomer, unassigned) [Compound S21-P2, N-(5-(6-(2,6-difluoro-3,5-dimethoxyphenyl)-4,5,6,7-tetrahydro-1H-indazol-3-yl)-1-methyl-1H-pyrazol-4-yl)-2-fluoroacrylamide], for which the IC50 is over 100 nM. For `C=CC(=O)N[C@H]1COC[C@H]1c1n[nH]c2c1CC[C@H](c1c(F)c(OC)cc(OC)c1F)C2` [Compound S13-P1, N-((3R,4R)-4-((S)-6-(2,6-difluoro-3,5-dimethoxyphenyl)-4,5,6,7-tetrahydro-1H-indazol-3-yl)tetrahydrofuran-3-yl)acrylamide], the half-maximal inhibitory concentration (IC50) was over 100 nM. The value for `CCC(=O)Nc1cnn(C)c1-c1n[nH]c2c1CCC(c1c(F)c(OC)cc(OC)c1F)C2` (single isomer, unassigned) [Compound S20-P1, N-(5-(6-(2,6-difluoro-3,5-dimethoxyphenyl)-4,5,6,7-tetrahydro-1H-indazol-3-yl)-1-methyl-1H-pyrazol-4-yl)propionamide] was over 100 nM; that for `C=C(C)C(=O)Nc1cnn(C)c1-c1n[nH]c2c1CCC(c1c(Cl)c(OC)cc(OC)c1Cl)C2` (single isomer, unassigned) [Compound S2-P1, N-(5-(6-(2,6-dichloro-3,5-Dimethoxyphenyl)-4,5,6,7-tetrahydro-1H-indazol-3-yl)-1-methyl-1H-pyrazol-4-yl) Methacrylamide] was over 100 nM; that for `C=CC(=O)Nc1cnn(CC(F)(F)F)c1-c1n[nH]c2c1CCC(c1c(F)c(OC)cc(OC)c1F)C2` (single isomer, unassigned) [Compound S18-P2, N-(5-(6-(2,6-difluoro-3,5-dimethoxyphenyl)-4,5,6,7-tetrahydro-1H-indazol-3-yl)-1-(2,2,2-trifluoroethyl)-1H-pyrazol-4-yl)acrylamide] was over 100 nM. Take `C=C(C)C(=O)Nc1cnn(C)c1-c1n[nH]c2c1CCC(c1c(Cl)c(OC)cc(OC)c1Cl)C2` (single isomer, unassigned) [Compound S2-P2, N-(5-(6-(2,6-dichloro-3,5-Dimethoxyphenyl)-4,5,6,7-tetrahydro-1H-indazol-3-yl)-1-methyl-1H-pyrazol-4-yl) Methacrylamide]: the half-inhibitory concentration (IC50) was over 100 nM.

With `COC(=O)/C=C/C(=O)Nc1cnn(C)c1-c1n[nH]c2c1CC[C@H](c1c(F)c(OC)cc(OC)c1F)C2` [Compound S22, methyl (S,E)-4-((5-(6-(2,6-difluoro-3,5-dimethoxyphenyl)-4,5,6,7-tetrahydro-1H-indazol-3-yl)-1-methyl-1H-pyrazol-4-yl)amino)-4-oxobut-2-enoate], the half-maximal inhibitory concentration (IC50) is over 100 nM. For the compound `COc1cc(OC)c(F)c([C@H]2CCc3c(-c4c(NC(=O)C5CO5)cnn4C)n[nH]c3C2)c1F` (stereo partly drawn) [Compound S24, N-(5-((S)-6-(2,6-difluoro-3,5-dimethoxyphenyl)-4,5,6,7-tetrahydro-1H-indazol-3-yl)-1-methyl-1H-pyrazol-4-yl)oxirane-2-carboxamide], the IC50 was over 100 nM. Regarding `COc1cc(OC)c(F)c([C@H]2CCc3c(-c4c(NC(=O)/C=C/C(=O)OC(C)C)cnn4C)n[nH]c3C2)c1F` [Compound S23, isopropyl (S,E)-4-((5-(6-(2,6-difluoro-3,5-dimethoxyphenyl)-4,5,6,7-tetrahydro-1H-indazol-3-yl)-1-methyl-1H-pyrazol-4-yl)amino)-4-oxobut-2-enoate], the IC50 was over 100 nM.

Turning to `C=CC(=O)Nc1cnn(CC(F)(F)F)c1-c1n[nH]c2c1CCC(c1c(F)c(OC)cc(OC)c1F)C2` (single isomer, unassigned) [Compound S18-P1, N-(5-(6-(2,6-difluoro-3,5-dimethoxyphenyl)-4,5,6,7-tetrahydro-1H-indazol-3-yl)-1-(2,2,2-trifluoroethyl)-1H-pyrazol-4-yl)acrylamide], the IC50 is over 100 nM. For the compound `CCC(=O)Nc1cnn(C)c1-c1n[nH]c2c1CCC(c1c(F)c(OC)cc(OC)c1F)C2` (single isomer, unassigned) [Compound S20-P2, N-(5-(6-(2,6-difluoro-3,5-dimethoxyphenyl)-4,5,6,7-tetrahydro-1H-indazol-3-yl)-1-methyl-1H-pyrazol-4-yl)propionamide], the IC50 was over 100 nM.

Consider `C=CC(=O)N[C@@H]1COC[C@@H]1c1n[nH]c2c1CC[C@H](c1c(F)c(OC)cc(OC)c1F)C2` [Compound S13-P2, N-((3S,4S)-4-((S)-6-(2,6-difluoro-3,5-dimethoxyphenyl)-4,5,6,7-tetrahydro-1H-indazol-3-yl)tetrahydrofuran-3-yl)acrylamide], for which the half-maximal inhibitory concentration (IC50) is over 100 nM. Turning to `C=CC(=O)N[C@@H]1COC[C@@H]1c1n[nH]c2c1CC[C@H](c1cc(OC)cc(OC)c1F)C2` [Compound S13-P4, N-((3S,4S)-4-((S)-6-(2-fluoro-3,5-dimethoxyphenyl)-4,5,6,7-tetrahydro-1H-indazol-3-yl)tetrahydrofuran-3-yl)acrylamide], the IC50 was over 100 nM.

In the case of `C=CC(=O)Nc1cnn(CC)c1-c1n[nH]c2c1CC[C@@H](c1cc(OC)cc(OC)c1F)C2` [Compound S14-P3, (R)—N-(1-ethyl-5-(6-(2-fluoro-3,5-dimethoxyphenyl)-4,5,6,7-tetrahydro-1H-indazol-3-yl)-1H-pyrazol-4-yl) acrylamide], the IC50 was over 100 nM. As to `C=CC(=O)N[C@@H]1COC[C@@H]1c1n[nH]c2c1CC[C@@H](c1c(Cl)c(OC)cc(OC)c1Cl)C2` [Compound S10-P2, N-((3S,4S)-4-((R)-6-(2,6-dichloro-3,5-dimethoxyphenyl)-4,5,6,7-tetrahydro-1H-indazol-3-yl)tetrahydrofuran-3-yl)acrylamide], the concentration for half-maximal inhibition (IC50) was over 100 nM.

`C=CC(=O)N[C@@H]1COC[C@@H]1c1n[nH]c2c1CC[C@H](c1c(Cl)c(OC)cc(OC)c1Cl)C2` [Compound S10-P3, N-((3S,4S)-4-((S)-6-(2,6-dichloro-3,5-dimethoxyphenyl)-4,5,6,7-tetrahydro-1H-indazol-3-yl)tetrahydrofuran-3-yl)acrylamide]: the IC50 is over 100 nM. On to `C=CC(=O)NC1CCOCC1c1n[nH]c2c1CC[C@H](c1c(Cl)c(OC)cc(OC)c1Cl)C2` (single isomer, unassigned) [Compound S7-P1], for which the half-inhibitory concentration (IC50) was over 100 nM. The value for `C=CC(=O)N[C@H]1COC[C@H]1c1n[nH]c2c1CC[C@H](c1cc(OC)cc(OC)c1F)C2` [Compound S13-P3, N-((3R,4R)-4-((S)-6-(2-fluoro-3,5-dimethoxyphenyl)-4,5,6,7-tetrahydro-1H-indazol-3-yl)tetrahydrofuran-3-yl)acrylamide] was over 100 nM; that for `C=CC(=O)N[C@H]1COC[C@H]1c1n[nH]c2c1CC[C@H](c1c(Cl)c(OC)cc(OC)c1Cl)C2` [Compound S10-P4, N-((3R,4R)-4-((S)-6-(2,6-dichloro-3,5-dimethoxyphenyl)-4,5,6,7-tetrahydro-1H-indazol-3-yl)tetrahydrofuran-3-yl)acrylamide] was over 100 nM.
